# Results as given in US11339442B2, “Methods of detecting insulator dysfunction and oncogene activation for screening, diagnosis and treatment of patients in need thereof” (THE GENERAL HOSPITAL CORPORATION, priority 2015, dated 2022).
# “Also recorded” adds a separate entry of the source. Where two headings read alike, the source gives them in different places.
# Experiments:
# [1] = system: Factor VII; details: LNP siRNA systems containing the lipid; cited from earlier work
# [2] = system: CTCF; assay: CTCF occupancy ChIP qPCR at the boundary adjacent to PDGFRA, BT142 gliomaspheres; type: cell-based, human; details: 5 μM 5-azacytidine for 8 days
# Experimental: Chromatin Immunoprecipitation-Chromatin Immunoprecipitation (ChIP) and sequencing (ChIP-Seq) was performed as described previously^32. Briefly, cultured cells or minced tissue was fixed in 1% formaldehyde and snap frozen in liquid nitrogen and stored at -80° C. for at least overnight. […] ChIP DNA was used to generate sequencing libraries by end repair (End-ItTM DNA repair kit, Epicentre), 3' A base overhang addition via Klenow fragment (NEB), and ligation of barcoded sequencing adapters. Barcoded fragments were amplified via PCR. […] Occupancy of the CTCF site in the boundary element adjacent to the PDGFRA locus was quantified by ChIP qPCR, using the following primers: […] CTCF peak intensity was further normalized as ratio to two invariant peaks, at PSMB1 and SPG11, using the following primers: PSMB1[NT]
# [3] = system: CpG in the CTCF motif of the boundary adjacent to PDGFRA; assay: DNA methylation quantification (bisulfite sequencing), BT142 gliomaspheres treated with demethylating agent; type: cell-based, human; details: 5 μM 5-azacytidine for 8 days
# Experimental: DNA Methylation Quantification-DNA methylation was analyzed in two ways. For gliomaspheres, genomic DNA was isolated via QiaAmp® DNA minikit (Qiagen®) and subjected to Bisulfite Conversion (EZ DNA Methylation GoldTM Kit-Zymo Research). Bisulfite converted DNA specific to the CTCF binding site (defined by JASPAR^40) in the boundary adjacent to PDGFRA was amplified using the following primers [NT]
# [4] = system: acute leukemia of all cell types in relapse; details: end of trial, cited from earlier work
# [5] = system: newly diagnosed AML; details: cited from earlier work
# [6] = system: PDGFRA; details: BT142 gliomaspheres, 5 μM 5-azacytidine for 8 days
# [7] = target: T1, FIP1L1-PDGFRA (Homo sapiens, UniProt P16234); details: FIP1L1-PDGFRA versus BCR-ABL; cited from earlier work
# T1 construct: the other entry of the earlier key: FIP1L1 (Q6UN15, Pre-mRNA 3'-end-processing factor FIP1)
# T1 sequence (P16234 593-1089 limits assumed): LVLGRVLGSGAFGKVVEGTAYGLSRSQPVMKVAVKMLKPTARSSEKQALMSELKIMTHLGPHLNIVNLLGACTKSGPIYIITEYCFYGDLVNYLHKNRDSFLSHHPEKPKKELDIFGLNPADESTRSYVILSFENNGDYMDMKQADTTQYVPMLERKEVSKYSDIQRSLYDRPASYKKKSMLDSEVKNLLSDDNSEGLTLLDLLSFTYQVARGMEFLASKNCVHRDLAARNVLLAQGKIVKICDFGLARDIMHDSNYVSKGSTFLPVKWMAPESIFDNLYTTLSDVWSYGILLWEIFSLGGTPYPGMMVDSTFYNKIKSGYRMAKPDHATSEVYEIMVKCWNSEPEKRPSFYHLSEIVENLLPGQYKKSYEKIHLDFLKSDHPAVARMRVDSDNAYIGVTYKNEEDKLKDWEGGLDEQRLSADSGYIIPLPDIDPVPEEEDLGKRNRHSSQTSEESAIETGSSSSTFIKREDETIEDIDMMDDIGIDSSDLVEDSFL
# [8] = preclinical studies; cited from earlier work
# [9] = system: advanced leukemia or MDS; details: cited from earlier work
# [10] = system: CMLs in transformation; details: first 13 patients, 100 mg/m^2 over 6 h every 12 h for 5 days; cited from earlier work
# [11] = system: MDS (RAEBT); details: patients with RAEBT, 3-day course 15 mg/m^2 daily; cited from earlier work
# [12] = system: GSC6 gliomaspheres; assay: Cell growth assay (CellTiter-Glo), GSC6 cells expressing CRISPR; type: cell-based, human; details: 1 μM Dasatinib or 500 nM Crenolanib
# Experimental: Cell Growth Assay—For the cell growth assay, 2,500 dissociated viable GSC6 cells expressing CRISPR and either GFP or Insulator targeting sgRNA (see above) were plated in […], of media in an opaque-walled tissue culture 96 well plate, in 1 μM Dasatinib, 500 nM Crenolanib, or equivalent DMSO (1:10,000) as a vehicle control. Cell growth was analyzed at days 3, 5, and 7 for Dasatinib, or days 3, 7, and 10 for Crenolanib, using CellTiter-Glo® reagent (Promega™) following the manufacturer's protocol. Data was normalized across days using an ATP standard curve.
# [13] = preclinical in vitro studies; cited from earlier work
# [14] = system: OLIG2 insulator; assay: ChIP-qPCR for CTCF and H3K9me3 after dCas9 / dCas9-KRAB recruitment, HEK293 cells; type: cell-based
# [15] = system: PDGFRA insulator; assay: as above; type: cell-based
# Experimental: Applicants performed these experiments at the PDGFRA insulator in HEK293 cells (FIG. 16A, Top). […] HEK293 cells were seeded into 100 mm cell culture dishes two days before transfection and grown to 60-70% confluency. […] of either dCas9 or dCas9-KRAB constitutive expression vector (JDS286 and Addgene Plasmid #50919 respectively) (FIG. 18) and 1 ug of guide RNA expression vector (pXPR1_noCas, Broad GPP) (FIG. 19) were mixed in 450ul OptiMEM. 27ul of FugeneHD was added and tubes were vortexed for two times one second, incubated at room temp for ten minutes and added dropwise to cell culture dishes.
# Cells were harvested three days after transfection and crosslinked in 1% formaldehyde at 37 C for 10 min. ChIP-qPCR was performed as previously described. Briefly, cells were lysed on ice, sonicated in 0.3% SDS for 5 minutes total time at ˜10W power, incubated with the relevant antibody overnight at 4C with rotation after dilution to 0.1% SDS. Antibody-bound chromatin was isolated using protein G magnetic beads. Bound complex is washed several times and eluted off the beads at 65C for 1h with shaking. Eluted complex is treated with RNase for 30 min at 37C and protinase K for 3h at 63C while crosslinks are reversed concurrently. IP DNA is cleaned up using a 2× Ampure XP DNA bead cleanup as per manufacturer's instructions.
# [16] = compared with aza; cited from earlier work
compound,measurement,setting,value
"CCCCC/C=C\C/C=C\CCCCCCCCC1(CCCCCCCC/C=C\C/C=C\CCCCC)OCC(CCN(C)C)O1 (stereo not shown) [DLinKC2-DMA, 1,2-dilinoleyl-4-(2-dimethylaminoethyl)-[1,3]-dioxolane]",gene silencing potency in hepatocytes in vivo (rank series),[1],DLinKC2-DMA>DLinKDMA>DLinDMA>>DLinDAP
"Nc1ncn([C@@H]2O[C@H](CO)[C@@H](O)[C@H]2O)c(=O)n1 [5-aza, 5-azacytidine]",increase of CTCF occupancy,[2],~1.7 fold
same,reduction of methylation of the CTCF motif,[3],~2.5 fold
same,overall response rate,[4]; adult patients with acute leukemia in relapse,9.2%
same,patients achieving complete remission,[4],nine
same,patients achieving partial remission,[4],two
same,patients with complete or partial remission,"[5]; 15 adult patients, 75 mg/m^2 daily s.c. for 7 days every 4 weeks",Eight
same,average number of cycles to remission,[5]; in vivo,three
same,"duration of response, average",[5]; patients who achieved complete remission,"8 (range, 6-13) cycles"
same,"duration of response, average",[5]; patients who achieved partial remission,"3 (range, 2-3) cycles"
same,down-regulation of PDGFRA expression,[6],~5 fold
Cc1ccc(NC(=O)c2ccc(CN3CCN(C)CC3)cc2)cc1Nc1nccc(-c2cccnc2)n1 [Imatinib],IC50 lower as compared to BCR-ABL,[7],250 fold
C[C@@H](Nc1nc(N[C@H](C)C(F)(F)F)nc(-c2cccc(Cl)n2)n1)C(F)(F)F [AG-881],blood-brain barrier penetration,[8],fully penetrate the blood-brain barrier
"1,2-dilinoleyloxy-keto-N,N-dimethyl-3-aminopropane [DLinKDMA]",gene silencing potency in hepatocytes in vivo (rank series),[1],DLinKC2-DMA>DLinKDMA>DLinDMA>>DLinDAP
"Nc1ncn([C@H]2C[C@H](O)[C@@H](CO)O2)c(=O)n1 [decitabine, 5-aza-2′-deoxycytidine]",complete response (CR),[9]; 37 patients with AML,14%
same,partial response (PR),[9]; 37 patients with AML,8%
same,response rate,[9]; comparison group to the higher doses / longer cycles,45%
same,patients achieving CR,[9]; five patients with CML,two
same,patients achieving PR,[9]; five patients with CML,two
same,response rate,[9]; higher doses (20 mg/m^2 for 10 days) and longer treatment cycles (15 mg/m2 for 20 days),11%
same,patients in whom only one cycle of therapy was required to achieve a CR,[9]; in vivo,eight of nine
same,objective responses,"[9]; overall, 48 patients",33%
same,complete response (CR),[9]; seven patients with MDS,28.5%
same,patients achieving PR,[9]; seven patients with MDS,two
same,adverse effect,[10],severe prolonged myelosuppression
same,percentage of responders,[11],70%
"CCCCC/C=C\C/C=C\CCCCCCCC(=O)OCC(CN(C)C)OC(=O)CCCCCCC/C=C\C/C=C\CCCCC (stereo not shown) [DLinDAP, 1,2-dilineoyl-3-dimethylammonium-propane]",gene silencing potency in hepatocytes in vivo (rank series),[1],DLinKC2-DMA>DLinKDMA>DLinDMA>>DLinDAP
CC1(COc2ccc3c(c2)ncn3-c2ccc3cccc(N4CCC(N)CC4)c3n2)COC1 [crenolanib],effect on the growth advantage of insulator CRISPR gliomaspheres,[12],abrogated
same,effect on the growth advantage of insulator CRISPR gliomaspheres,[12]; listed as Crenolanib,eliminated
"CCCCC/C=C\C/C=C\CCCCCCCCOCC(CN(C)C)OCCCCCCCC/C=C\C/C=C\CCCCC (stereo not shown) [DLinDMA, 1,2-dilinoleyloxy-3-N,N-dimethylaminopropane]",gene silencing potency in hepatocytes in vivo (rank series),[1],DLinKC2-DMA>DLinKDMA>DLinDMA>>DLinDAP
Cc1cn(-c2cc(NC(=O)c3ccc(C)c(Nc4nccc(-c5cccnc5)n4)c3)cc(C(F)(F)F)c2)cn1 [nilotinib],potency relative to imatinib (factor),[13],20 to 50
dCas9: enzymatically inactive CRISPR enzyme recruited by guide RNA to a CTCF insulator,CTCF binding at the OLIG2 insulator,[14],can disrupt CTCF binding; also recorded: can reduce CTCF binding
same,CTCF binding at the PDGFRA insulator,[15],potently disrupts CTCF binding; also recorded: can reduce CTCF binding
O=c1ncccn1[C@@H]1O[C@H](CO)[C@@H](O)[C@H]1O [Zebularine],stability,[16],more stable than aza
